Columns and labels:
Assay type in all cases: cell-based, human
[1] = tested on: LUHMES cells; assay: Annonacin titration, calcein viability assay; settings: 20 nM annonacin, 48 h, glucose-reduced medium
Protocol: Commercial annonacin (Cayman Chemical, Michigan, MI, USA) was diluted in DMSO and stored in small aliquots of 100 µM stock solution at -80 °C. For annonacin titration, LUHMES cells were seeded onto a 48-well microplate and intoxicated on day 6 of differentiation with different concentrations of annonacin, over a period of 48 h, in glucose-reduced differentiation medium of DMEM without glucose (Gibco), supplemented with 2.4 mM glucose, 1% N-2 supplement, 1 µg/ml tetracycline, […] GDNF, and 490 µg/ml dbcAMP to mimic the physiological concentration of glucose in the human brain[44],[45]. Each experimental condition was run in triplicates. Cell viability was measured by calcein viability assay, as detailed below. […]
The calcein AM green dye (Thermo Fisher Scientific) was diluted in DMSO to obtain a 1 mM stock solution. […] Cells were lysed in a 200 µl volume of 1% Triton™ X-100 in PBS (phosphate buffered saline) and the lysate transferred to a 96‐well black plate for the readout. The fluorescence signal was measured on a FLUOstar® Omega plate reader (BMG LabTech, Ortenberg, Germany) at λ Ex/Em = 485/530 nm and data was analyzed with the MARS data analysis software (BMG LabTech). For background correction, we subtracted the background control signal from the measured values of all experimental conditions. […]

[2] = tested on: total tau transcripts; assay: Total tau mRNA by RT-qPCR; settings: 20 nM annonacin alone, 48 h, vs control
Protocol: (§1) LUHMES cells were seeded on PLO/FN coated 6-well microplates and the pharmacological treatments were performed as previously explained. The cells were washed in HBSS, prior to being collected for mRNA isolation (RNeasy® Plus Mini Kit, Qiagen, Venlo, Netherlands), following the manufacturer’s instructions. The mRNA concentrations were determined on a Nano-Drop 2000c (Thermo Fisher Scientific) and 1 µg of mRNA was reverse-transcribed into cDNA with the iScript™ Reverse Transcription Supermix for RT-qPCR Kit (Bio-Rad) on a thermal cycler (SensoQuest, Göttingen, Germany). Real-time PCR was performed using SYBR™ Select Master Mix for CFX (Thermo Fisher Scientific) with 30 ng cDNA and 0.4 µM of primers against the respective target genes (Supplementary Table S3), in a 20 µl total volume, on a CFX96 Touch™ Real-Time Cycler (Bio-Rad). The relative expression of mRNA was calculated using the CFX Manager software (ΔΔCt method) from Bio-Rad, and the Ct values of the target-genes were normalized to the reference genes RPL22 and UBQLN1. The data were reported as fold change relative to the control (DMSO-treated) condition.

[3] = tested on: 3R-tau transcripts; assay: 3R-tau mRNA by RT-qPCR; settings: 20 nM annonacin alone, 48 h, vs control
Protocol: as §1

[4] = tested on: NQO1; assay: NQO1 mRNA after siRNA transfection (RT-qPCR); settings: Nrf2 siRNA transfected cells, annonacin model
Protocol: as §1, with “Real-time PCR was performed using SYBR™ Select Master Mix for CFX (Thermo Fisher Scientific) with 30 ng cDNA and 0.4 µM of primers against the respective target genes (Supplementary Table S3), in a 20 µl total volume, on a CFX96 Touch™ Real-Time Cycler (Bio-Rad).” left out, “The data were reported as fold change relative to the control (DMSO-treated) condition.” left out
LUHMES cells seeded on PLO/FN coated 48-well microplates were left to differentiate for 5 days, before being transfected with 25 nM of NRF2-targeting (gene ID 4780) or negative control siRNA (siTOOLs Biotech, Planegg, Germany), in Opti-MEM + GlutaMax medium (Thermo Fisher Scientific) with 0.4% of lipofectamine RNAiMax. […] Cell viability was determined by calcein assay, after 48 h of treatment, as explained before.

[5] = tested on: HO-1; assay: HO-1 protein levels by ELISA; settings: 48 h
Protocol: Protein expression levels of HO-1 were determined by ELISA (enzyme-linked immunosorbent assay) using a commercial kit (#ab207621, Abcam) according to the manufacturer's instructions. For this purpose, cells were seeded onto PLO/FN coated 6-well microplates. After the pharmacological treatments, cells were washed with warm HBSS, trypsinized and pelleted as before, and finally lysed in 100 µl cell extraction buffer PTR provided by the kit. Sample concentration was measured by BCA, as previously mentioned, and 1 µg of total protein extract was loaded into the respective wells. All samples were run in duplicates and the absorbances were measured on a FLUOstar® Omega plate reader at λ 450 nm. For data analysis, we used the MARS software (BMG LabTech). First, we calculated the means of the absorbances for each condition. The mean value of the blank control (i.e., a condition with only sample diluent buffer) was subtracted from the mean values of all standard and experimental conditions. A 4PL-curve fit was plotted on Prism 9 software (GraphPad Software, San Diego, CA, USA), using the blank-corrected mean values of standard conditions. The obtained curve was used to determine the HO-1 protein concentration, followed by multiplication by the dilution factor to obtain the concentration of the target-protein in each sample.

## CCCCCCCCCCCC[C@@H](O)[C@H]1CC[C@H]([C@H](O)CCCC[C@H](O)CCCCC[C@@H](O)CC2=CC(C)OC2=O)O1 (stereo partly drawn) [annonacin]
[1]
  cell viability: approximately 50 % of the untreated condition
[2]
  total tau transcripts: significantly downregulated
[3]
  3R-tau transcripts: downregulation of 3R-tau transcripts

## C=CC(C)(C)c1cc(/C=C/C(=O)c2ccc(O)cc2)c(OC)cc1O [licochalcone A]
[4]
  NQO1 expression despite Nrf2 knockdown: still led to an induction of NQO1 expression

## Cn1c(Nc2nc3ccc(C(F)(F)F)cc3s2)nc2cc(C(=O)NCCOCCO)ccc21 [HPP-D]
[5]; absence of annonacin
  HO-1 protein expression: significantly increased the HO-1 protein expression
[5]; presence of 20 nM annonacin
  HO-1 protein expression: significantly increased the HO-1 protein expression
